Measured values reported in US8901167B2, “Product and process for inhibition of biofilm development” (National Jewish Health, priority 2004, dated 2014).
In brackets after ≈: the same amount, converted by molar mass.

Columns and labels:
[1] = test system: P. aeruginosa strain PA01 biofilm; experiment: Antibiotic susceptibility of biofilm population (MBEC), NCCLS assay; assay type: cell-based; settings: for Susceptibility of biofilms grown in the presence of neutrophils versus absence: biofilms grown 24 hours
Method: (§1) As human neutrophils enhance biofilm development, the inventors questioned if biofilms formed in the presence of neutrophils had altered patterns of antibiotic resistance. Biofilms and planktonic P. aeruginosa grown in the presence or absence of neutrophils for 24 hours were tested for susceptibility to four clinically relevant classes of antibiotics. […] No significant changes in antibiotic susceptibilities was detected in planktonic P. aeruginosa in the presence of neutrophils. This selective modification of antibiotic resistance supports the conclusion that neutrophils mediate phenotypic changes in addition to greater biofilm thickness.

[2] = test system: P. aeruginosa strain PA01; experiment: Antibiotic susceptibility of planktonic population (MIC), NCCLS assay; assay type: cell-based; settings: Pseudomonas aeruginosa
Method: as §1

[3] = test system: P. aeruginosa PA01 biofilm; assay type: cell-based; settings: for Effect on neutrophil-induced enhancement of biofilm formation: CV staining, DNase I 90 Kunitz units/ml, gelsolin 200 nM, FIG. 3C
Method: A static biofilm assay was used with polypropylene tubes (9). PA01 was grown overnight under constant rotation to late stationary phase at 37° C. in LB. All biofilm studies were initiated with neutrophils (1×10^7 cells/ml) and PA01 (1×10^6 CFU/ml) in suspension, and cultures were incubated under stationary conditions at 37° C. P. aeruginosa adherent to the tube was considered to be a biofilm, while bacteria not adherent to the surface of the tube was considered to be “planktonic”. Viable P. aeruginosa biofilm and planktonic cells were quantified by sonicating the adherent bacteria in LB, followed by serial dilution and plating to determine CFUs on Pseudomonas Isolation Agar (Difco, Sparks, Md.). P. aeruginosa biofilm density was quantified by crystal violet (CV) staining (9). The contribution of background staining of neutrophil components, tubes and reagents were subtracted from depicted values. Neutrophils were lysed with 0.1% Tween 20 (BioRad, Hercules, Calif.) for 30 min. Neutrophil lysates relatively depleted of F-actin were prepared by precipitating the F-actin using the F-actin/G-actin In Vivo Biochem Kit (Cytoskeleton, Denver, Colo.). The total protein present in the whole cell lysate and the F-actin depleted lysate was determined by the Bradford Protein Assay (BioRad, Hercules, Calif.). Biofilm exopolysaccharide was determined by total carbohydrate assays as previously described (15).
Genomic DNA was isolated from neutrophils and P. aeruginosa using the DNeasy Tissue Kit (Qiagen, Valencia, Calif.) according to the manufacturer's protocol. Actin and DNA polymerization was performed as described previously (38). Effects of filament cleavage was tested by initially treating the samples with 90 Kunitz units/ml of DNase I (43) and/or 200 nM gelsolin (Sigma) (42). Granule proteins were isolated from homogenized human neutrophils by differential centrifugation in a discontinuous Percoll/sucrose gradient (34). Heavy and light granules were immediately suspended in RPMI media and added to P. aeruginosa.

actin-DNA filaments = experiment: Fluorescence microscopy of actin-DNA filaments in neutrophil lysates and CF sputum; parameters: species or system human; settings: data not shown
Method: Samples of sputa from CF patients chronically infected with P. aeruginosa were frozen in liquid nitrogen and stored at −20° C. At the time of analysis, sputa were thawed and resuspended carefully in PBS (1:4 vol/vol ratio) containing 10^7 CFU/ml of P. aeruginosa labeled with the intracellular fluorescent conjugate (CFDA SE) as described in the actin-binding protocol. Samples were incubated for 4 hours at 37° C., then dried on Superfrost/Plus microscope slides (Fisher Scientific) and stained for 15 min with 10 μl of 0.6 μM Alexa Fluor 546 Phalloidin (Molecular Probes), 10 μl of 0.2 μM DAPI, dilactate (Molecular Probes), to visualize F-actin and DNA. Visualization of actin (546/576 nm), DNA (358/461 nm), and P. aeruginosa (492/517 nm) were performed sequentially on the same field, followed by an “overlay” view at all 3 wavelengths. Neutrophil lysates were also combined with P. aeruginosa labeled with CFDA SE for 4 hrs at 37° C., and staining of F-actin and DNA was conducted as described for CF sputa.

P. aeruginosa biofilm [4] = settings: literature refs 39, 43; cited from earlier work
P. aeruginosa biofilm [5] = experiment: NUNC-TSP biofilm growth of P. aeruginosa suspended in mucin; assay type: cell-based
Source text: When P. aeruginosa was suspended in mucin rather then RPMI media, a similar effect was observed on NUNC-TSP biofilm growth. […] These aggregates of P. aeruginosa may represent the predominant structure of biofilms that are present in the CF airway, and the combination of neutrophils with mucin appears to enhance their formation.

[6] = PA01 + PMN, biofilm grown with neutrophils 24 hours
[7] = PA01 biofilm, without neutrophils
[8] = PA01 + PMN, planktonic, grown with neutrophils 24 hours
[9] = PA01 planktonic, without neutrophils

## CC[C@H]1OC(=O)[C@H](C)[C@@H](O[C@H]2C[C@@](C)(OC)[C@@H](O)[C@H](C)O2)[C@H](C)[C@@H](O[C@@H]2O[C@H](C)C[C@H](N(C)C)[C@H]2O)[C@](C)(O)C[C@@H](C)CN(C)[C@H](C)[C@@H](O)[C@]1(C)O [Azithromycin]
[1]; [6]
  MBEC: 1024 µg/mL
[1]; [7]
  MBEC: >1024 µg/mL
[1]
  Susceptibility of biofilms grown in the presence of neutrophils versus absence: unchanged
[2]; [8]
  MIC: 32 µg/mL
[2]; [9]
  MIC: 64 µg/mL (≈ 85.4 µM)

## CC(C)(O/N=C(\C(=O)N[C@@H]1C(=O)N2C(C(=O)[O-])=C(C[n+]3ccccc3)CS[C@H]12)c1csc(N)n1)C(=O)O [Ceftazidime]
[1]; [6]
  MBEC: >1024 µg/mL
[1]; [7]
  MBEC: >1024 µg/mL
[1]
  Susceptibility of biofilms grown in the presence of neutrophils versus absence: unchanged
[2]; [8]
  MIC: 2 µg/mL
[2]; [9]
  MIC: 2 µg/mL (≈ 3.66 µM)

## O=C(O)c1cn(C2CC2)c2cc(N3CCNCC3)c(F)cc2c1=O [Ciprofloxacin]
[1]; [6]
  MBEC: 128 µg/mL
[1]; [7]
  MBEC: 512 µg/mL
[1]
  Susceptibility of biofilms grown in the presence of neutrophils versus absence: significantly greater susceptibility
[2]; [8]
  MIC: 2 µg/mL
[2]; [9]
  MIC: 0.5 µg/mL (≈ 1.51 µM)

## NC[C@H]1O[C@H](O[C@H]2[C@H](O)[C@@H](O[C@H]3O[C@H](CO)[C@@H](O)[C@H](N)[C@H]3O)[C@H](N)C[C@@H]2N)[C@H](N)C[C@@H]1O [Tobramycin]
[1]; [6]
  MBEC: 256 µg/mL
[1]; [7]
  MBEC: >1024 µg/mL
[1]
  Susceptibility of biofilms grown in the presence of neutrophils versus absence: significantly greater susceptibility
[2]; [8]
  MIC: 0.5 µg/mL
[2]; [9]
  MIC: 1 µg/mL (≈ 2.14 µM)

## DNase
[3]
  Effect on bacterial growth or neutrophil survival: without significantly inhibiting bacterial growth or neutrophil survival
  Effect on neutrophil-induced enhancement of biofilm formation: abolished much of the neutrophil-induced enhancement of biofilm formation
actin-DNA filaments
  Disruption of actin-DNA filaments: near complete disruption of the actin-DNA filaments
P. aeruginosa biofilm [4]
  Effect on P. aeruginosa biofilm formation: strongly inhibited biofilm formation

## gelsolin
[3]
  Effect on neutrophil-induced enhancement of biofilm formation: significantly reduced the neutrophil-induced enhancement of the biofilm

## mucin
P. aeruginosa biofilm [5]; absence of neutrophils
  Effect on biofilm growth: increased biofilm growth
P. aeruginosa biofilm [5]; presence of neutrophils
  Effect on biofilm growth: no change
